# Reference: US20160061919A1, “IMAGING OF CREATINE KINASE ENZYME EXPRESSION IN CANCEROUS TISSUES” (Sidra Medical and Research Center, priority 2014, published 2016)
# Columns and labels:
# [1] = system: creatine kinase (CK) expression in cancer cells; assay: CEST imaging of cancer cells cultured with PCr; format: cell-based; conditions: cancer cell line cultured with PCr for 1 hour; FIG. 2
# Source text: (§1) In certain embodiments, the radio frequency (RF) pulse can be provided at different frequency offsets. In certain embodiments, to detect the conversion of phosphocreatine to creatine, an RF pulse was applied at a frequency offset of about 1.8 ppm for a period of about 1 to about 3 seconds.
# The creatine kinase (CK) expression in cancer cells cleaves the PCr into creatine (Cr), and can be responsible for the increase in CEST contrast from creatine amine protons.
# [2] = system: CK enzyme expressed in the tumor; assay: in vivo imaging of creatine kinase expression by monitoring conversion of PCr to Cr through CEST; conditions: 60 minutes following tail vein injection of PCr, versus base line CEST map, FIG. 3
# Experimental: as §1
# “b” is the base line CEST map from the same slice. “c” is a CEST map of the same slice at 60 minutes following tail vein injection of PCr.
smiles,measurement,setting,value
"CN(CC(=O)O)C(=N)NP(=O)(O)O [PCr, phosphocreatine]",elevation of the CEST contrast over cancer cells without PCr,[1],about 16%
same,increase in CEST contrast,[2],about 11%
